Columns and labels:
carbonyl reductase [1] = biological target: T1, carbonyl reductase (Homo sapiens, UniProt P16152); experiment: Inhibition of carbonyl reductase by arylcyanooximes (1/rate vs. 1/substrate, menadione and NADPH as varied substrates); assay type: biochemical; details: for Ki: uncompetitive against both coenzyme and carbonyl substrates, range over the six compounds, read-out: Kii (intercept inhibition constant)
T1 sequence (P16152 1-277): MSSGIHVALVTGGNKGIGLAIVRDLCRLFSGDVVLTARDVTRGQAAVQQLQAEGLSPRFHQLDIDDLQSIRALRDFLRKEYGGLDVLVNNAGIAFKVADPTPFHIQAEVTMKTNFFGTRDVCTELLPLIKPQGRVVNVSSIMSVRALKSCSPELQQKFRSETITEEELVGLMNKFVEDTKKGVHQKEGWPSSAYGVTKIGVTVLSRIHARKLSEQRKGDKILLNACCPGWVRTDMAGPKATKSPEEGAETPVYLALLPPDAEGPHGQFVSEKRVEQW
Protocol: FIG. 6 describes inhibition patterns seen with inhibitors C1, C2, C3, C4, C5, and C6 wherein KII stands for the intercept inhibition constant.
Six arylcyanooximes (C1, C2, C3, C4, C5, and C6) were tested as possible inhibitors for carbonyl reductase. (See the syntheses described earlier in this disclosure). […] See FIGS. 5 A and B, portraying the 1/rate vs. 1/substrate concentration taken with C5, with menadione and NADPH as the varied substrates, respectively. […] Therefore, while compositions comprising C5 are preferred, compositions comprising C1, C2, C3, C4, and/or C6 are also included in embodiments of the invention and are also expected by the inventors to be beneficial in the methods of the invention.

carbonyl reductase [2] = biological target: T1, carbonyl reductase; details: cited from earlier work
[3] = test system: A549 adenocarcinoma cells; details: coadministered with daunorubicin; cited from earlier work

SMILES | inhibition pattern against the carbonyl substrate (carbonyl reductase [1]) | inhibition pattern against both coenzyme and carbonyl substrates (carbonyl reductase [1]) | Ki (carbonyl reductase [1]) [µM] | melting point [°C] | potency as inhibitor of human carbonyl reductase (in words) (carbonyl reductase [2]) | effect on cytotoxicity of daunorubicin [3] | potency as inhibitor of carbonyl reductase (in words) (carbonyl reductase [1]) | inhibition pattern against NADPH (carbonyl reductase [1]; NADPH as varied substrate (FIG. 5B)) | inhibition pattern against menadione (carbonyl reductase [1]; menadione as varied substrate (FIG. 5A))
N#CC(=NO)c1ccc(F)cc1F [C1, oximino(2,4-difluorophenyl)acetonitrile] | uncompetitive inhibitors | uncompetitive inhibitors | 10.8 to 72 | 64 to 65 | – | – | – | – | –
CNc1ncnc2c1c(-c1cccc(O)c1)cn2C(C)C [3-(7-isopropyl-4-(methylamino)-7H-pyrrolo[2,3-d]pyrimidin-5-yl)phenol] | – | – | – | – | potent inhibitor | enhance the cytotoxicity of daunorubicin | – | – | –
N#CC(=NO)c1cc(F)ccc1F [C3, oximino(2,5-difluorophenyl)acetonitrile] | uncompetitive inhibitors | uncompetitive inhibitors | 10.8 to 72 | 64 to 67 | – | – | – | – | –
N#CC(=NO)c1c(F)cccc1Cl [C4, oximino(2-chloro-6-fluorophenyl)acetonitrile] | uncompetitive inhibitors | uncompetitive inhibitors | 10.8 to 72 | – | – | – | – | – | –
N#CC(=NO)c1c(F)cccc1F [C2, oximino(2,6-difluorophenyl)acetonitrile] | uncompetitive inhibitors | uncompetitive inhibitors | 10.8 to 72 | 99 to 100 | – | – | – | – | –
N#CC(=NO)c1ccc(Cl)cc1Cl [C5, oximino(2,4-dichlorophenyl)acetonitrile] | uncompetitive inhibitors | uncompetitive inhibitors | 10.8 to 72 | 151 | – | – | potent inhibitor | uncompetitive inhibitor | uncompetitive inhibitor
N#CC(=NO)c1c(Cl)cccc1Cl [C6, oximino(2,6-dichlorophenyl)acetonitrile] | uncompetitive inhibitors | uncompetitive inhibitors | 10.8 to 72 | 94 to 96 | – | – | – | – | –

Reference: patent US7727967B2, “Cyanooxime inhibitors of carbonyl reductase and methods of using said inhibitors in treatments involving anthracyclines” (Boise State University, priority 2006, dated 2010)
